From patent publication US20240342292A1, “Compounds for the Degradation of EGFR Kinase” (BeiGene Switzerland GmbH, priority 2021, published 2024) come the findings set out here.

One assay deals with Del19/T790M/C797S EGFR. Briefly: EGFR degradation HTRF assay in H1975-clone #28 (DTC) cells. Type of assay: cell-based. Particulars: H1975 # 28 DTC (Del19/T790M/C797S), 16h treatment; for DC50: HTRF; for Dmax (%): maximum percentage of degradation. The procedure, abridged:
(§1)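 EGFR levels quantified by HTRF on lysates after 16 h compound exposure (top 10 uM, 5-fold, 8 points) in single-cell H1975 clones expressing only exogenous mutant EGFR after sgRNA knockout of endogenous copies. DC50 derived by four-parameter logistic fitting of inhibition percentage.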
(In general: Time-resolved FRET reads energy transfer from a long-lived donor to a nearby acceptor.)

The target of a further assay is T1, L858R/T790M/C797S EGFR (Homo sapiens, UniProt P00533, C797S/L858R/T790M).
T1 construct: expressed in transfected cells; host or cells: H1975 clone #25 (lentiviral over-expression, endogenous EGFR knocked out by sgRNA)
T1 sequence (P00533 25-1210 T790M/C797S/L858R): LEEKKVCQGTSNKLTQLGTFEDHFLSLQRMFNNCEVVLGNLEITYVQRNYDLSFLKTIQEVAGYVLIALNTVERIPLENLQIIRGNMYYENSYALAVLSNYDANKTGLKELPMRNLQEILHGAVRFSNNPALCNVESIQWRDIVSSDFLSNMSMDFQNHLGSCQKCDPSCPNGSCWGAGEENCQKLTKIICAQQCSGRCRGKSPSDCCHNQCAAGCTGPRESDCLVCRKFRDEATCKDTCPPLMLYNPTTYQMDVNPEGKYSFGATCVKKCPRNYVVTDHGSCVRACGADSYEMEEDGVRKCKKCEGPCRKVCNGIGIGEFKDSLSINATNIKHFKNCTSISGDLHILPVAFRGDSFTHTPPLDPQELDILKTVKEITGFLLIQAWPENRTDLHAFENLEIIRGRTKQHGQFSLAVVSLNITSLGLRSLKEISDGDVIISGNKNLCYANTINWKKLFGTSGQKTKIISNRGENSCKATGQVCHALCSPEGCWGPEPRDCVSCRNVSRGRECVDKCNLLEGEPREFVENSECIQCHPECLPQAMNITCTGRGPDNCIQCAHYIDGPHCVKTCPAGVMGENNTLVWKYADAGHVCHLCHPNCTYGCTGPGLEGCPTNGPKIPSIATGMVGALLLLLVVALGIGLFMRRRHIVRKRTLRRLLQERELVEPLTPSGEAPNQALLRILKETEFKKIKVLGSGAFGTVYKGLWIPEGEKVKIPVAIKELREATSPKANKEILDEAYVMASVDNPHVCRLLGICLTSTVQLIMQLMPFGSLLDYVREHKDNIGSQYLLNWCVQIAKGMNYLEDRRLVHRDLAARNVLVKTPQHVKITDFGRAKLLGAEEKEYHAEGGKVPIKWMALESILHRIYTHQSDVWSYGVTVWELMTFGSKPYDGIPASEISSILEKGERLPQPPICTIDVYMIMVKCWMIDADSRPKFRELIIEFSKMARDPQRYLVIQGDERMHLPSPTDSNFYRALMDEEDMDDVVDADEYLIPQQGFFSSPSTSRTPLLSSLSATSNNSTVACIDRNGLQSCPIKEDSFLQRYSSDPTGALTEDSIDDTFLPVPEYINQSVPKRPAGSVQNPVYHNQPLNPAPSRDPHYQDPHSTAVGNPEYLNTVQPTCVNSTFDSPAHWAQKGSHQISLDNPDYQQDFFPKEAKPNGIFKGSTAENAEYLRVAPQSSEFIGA
The assay is described as follows: EGFR degradation HTRF assay in H1975-clone #25 (LTC) cells. Type of assay: cell-based. Particulars: 16h treatment; for DC50: H1975 # 25-LTC (L858R/T790M/C797S), HTRF; for Dmax: NCI-H1975, H1975 # 25-LTC (L858R/T790M/C797S), maximum percentage of degradation. The procedure, abridged: as §1

With `Cc1cc2cc(n1)-c1cnn(C)c1OCCC[C@@H](C)CN1/C(=N/C2=O)Nc2ccc(C(=O)N(C)[C@@H]3CCN(CCNc4cc(F)c([C@H]5CCC(=O)NC5=O)c(F)c4)C[C@@H]3F)cc21` [Example 350, (R,E)-N—((3S,4R)-1-(2-((4-((R)-2,6-dioxopiperidin-3-yl)-3,5-difluorophenyl)amino)ethyl)-3-fluoropiperidin-4-yl)-N,1^1,2^6,7-tetramethyl-3-oxo-5^2,5^3-dihydro-1^1H,5^1H-11-oxa-4-aza-5(2,1)-benzo[d]imidazola-2(2,4)-pyridina-1(4,5)-pyrazolacycloundecaphane-5^6-carboxamide], in the assay with Del19/T790M/C797S EGFR, the DC50 – broadly, the midpoint of the concentration-degradation curve – was found to be 0.662 nM and the “Dmax (%)” value stood at 86.74%. On L858R/T790M/C797S EGFR, half-maximal degradation (DC50) was put at 0.614 nM and the Dmax (commonly the greatest extent of degradation seen) amounted to 90.4%.

With `Cc1cc2cc(n1)-c1cnn(C)c1OCCC[C@@H](C)CN1/C(=N/C2=O)Nc2ccc(C(=O)N(C)CCC3CCN(c4cc(F)c([C@H]5CCC(=O)NC5=O)c(F)c4)CC3)cc21` [Example 279, (R,E)-N-(2-(1-(4-((R)-2,6-dioxopiperidin-3-yl)-3,5-difluorophenyl)piperidin-4-yl)ethyl)-N,1^1,2^6,7-tetramethyl-3-oxo-5^2,5^3-dihydro-1^1H,5^1H-11-oxa-4-aza-5(2,1)-benzo[d]imidazola-2(2,4)-pyridina-1(4,5)-pyrazolacycloundecaphane-5^6-carboxamide], in the assay with Del19/T790M/C797S EGFR, it took 0.75 nM to reach half-maximal degradation (DC50) and the “Dmax (%)” value is on record as 82.08%. On L858R/T790M/C797S EGFR, this compound returned a half-maximal degradation concentration (DC50) of 1.33 nM and a Dmax of 83%.

For the compound `Cc1cc2cc(n1)-c1cnn(C)c1OCCC[C@@H](C)CN1/C(=N/C2=O)Nc2ccc(N3CCC(N(C)C4CCN(c5cc(F)c([C@H]6CCC(=O)NC6=O)c(F)c5)CC4)CC3)cc21` [Example 394, (R)-3-(2,6-difluoro-4-(4-(methyl(1-((R,E)-1^1,2^6,7-trimethyl-3-oxo-5^2,5^3-dihydro-1^1H,5^1H-11-oxa-4-aza-5(2,1)-benzo[d]imidazola-2(2,4)-pyridina-1(4,5)-pyrazolacycloundecaphane-5^6-yl)piperidin-4-yl)amino)piperidin-1-yl)phenyl)piperidine-2,6-dione], in the assay with Del19/T790M/C797S EGFR, the DC50 was determined as 0.901 nM and the “Dmax (%)” value amounted to 69.35%. At L858R/T790M/C797S EGFR, this compound came in with a 50% degradation concentration (DC50) of 0.787 nM and a Dmax of 74.1%.

Regarding `Cc1cc2cc(n1)-c1cnn(C)c1OCCC[C@@H](C)CN1/C(=N/C2=O)Nc2ccc(N3CCN(CCC4CCN(c5cc(F)c([C@H]6CCC(=O)NC6=O)c(F)c5)CC4)CC3=O)cc21` [Example 437, (R)-3-(2,6-difluoro-4-(4-(2-(3-oxo-4-((R,E)-1^1,2^6,7-trimethyl-3-oxo-5^2,5^3-dihydro-1^1H,5^1H-11-oxa-4-aza-5(2,1)-benzo[d]imidazola-2(2,4)-pyridina-1(4,5)-pyrazolacycloundecaphane-5^6-yl)piperazin-1-yl)ethyl)piperidin-1-yl)phenyl)piperidine-2,6-dione], in the assay with Del19/T790M/C797S EGFR, half-maximal degradation (DC50) was put at 0.534 nM and the “Dmax (%)” value is listed as 88.76%. In addition, at L858R/T790M/C797S EGFR, half-maximal degradation (DC50) was put at 1.01 nM and the maximal degradation (Dmax) was found to be 91%.

Take `Cc1cc2cc(n1)-c1cnn(C)c1OCCC[C@@H](C)CN1/C(=N/C2=O)Nc2ccc(C(=O)N3CCC(NCCc4cc(F)c([C@H]5CCC(=O)NC5=O)c(F)c4)CC3)cc21` [Example 300, (R)-3-(2,6-difluoro-4-(2-((1-((R,E)-1^1,2^6,7-trimethyl-3-oxo-5^2,5′-dihydro-1^1H,5^1H-11-oxa-4-aza-5(2,1)-benzo[d]imidazola-2(2,4)-pyridina-1(4,5)-pyrazolacycloundecaphane-5^6-carbonyl)piperidin-4-yl)amino)ethyl)phenyl)piperidine-2,6-dione]: in the assay with Del19/T790M/C797S EGFR, it took 1.48 nM to reach half-maximal degradation (DC50) and the “Dmax (%)” value came out at 73.74%. On L858R/T790M/C797S EGFR, this compound displayed a DC50 of 0.653 nM and a Dmax of 88.2%.
